Source: patent US20060079453A1, “Hla binding peptides and their uses” (priority 2002, published 2006)
No end group written: not given here.

Legend:
Assay in all cases: biochemical
Format in all cases: binding
HLA-DR DRB1*0101 (DR1) = HLA-DR DRB1*0101 (DR1) (Homo sapiens, UniProt P01903+P01911, A100R/D57E/F55L/F60I/F76Y/I96L/L162R/M171V/P40L/Q125E/R42F/V115G/Y59C); conditions: DRB1 *0101
HLA-DR DRB1*0401 (DR4) = HLA-DR DRB1*0401 (DR4) (Homo sapiens, UniProt P01903+P01911, A100K/A169T/F76Y/I96L/K127E/L162R/M171V/N62H/P40V/Q125Y/R42H/S133A/S149N/S66Y/V115G/V209L/W38E); conditions: DRB1 *0401
HLA-DR DRB1*0701 (DR7) = HLA-DR DRB1*0701 (DR7) (Homo sapiens, UniProt P01903+P01911, A100R/A102G/A103Q/D57E/D86V/E43K/F76Y/K127E/L162R/M171V/P40G/Q125H/Q99D/R33Q/R42Y/R54Q/S133A/S66F/T210M/V115G/Y107V/Y59L/Y89S); conditions: DRB1 *0701
HLA-DR DRB1*0802 (DR8) = HLA-DR DRB1*0802 (DR8) (Homo sapiens, UniProt P01903+P01911, A100R/A103L/A169T/F76Y/H45Y/I96F/K41T/L162R/M171V/P40S/Q125H/Q178H/Q39Y/Q99D/R218S/R42G/S66Y/V115G/W38E)
HLA-DR DRB1*0901 (DR9) = HLA-DR DRB1*0901 (DR9) (Homo sapiens, UniProt P01903+P01911, A100R/A103E/D57H/D86V/F55Y/F60I/F76Y/I96F/K127E/L162R/M171V/P40D/Q125H/Q99R/R33Q/R42F/S133A/S66N/T210M/V115G/W38K/Y107V/Y59G/Y89S); conditions: DRB1 *0901
HLA-DR DRB1*1101 (DR11) = HLA-DR DRB1*1101 (DR11) (Homo sapiens, UniProt P01903+P01911, A100R/A169T/A87E/I96F/K41T/L162R/M171V/P40S/Q125H/Q178H/Q39Y/Q99D/R42S/S66Y/T262R/V115G/W38E); conditions: DRB1 *1101
HLA-DR DRB1*1302 (DR13) = HLA-DR DRB1*1302 (DR13) (Homo sapiens, UniProt P01903+P01911, A100E/A169T/K41T/L162R/M171V/P40S/Q125H/Q178H/Q39Y/Q99D/R42S/S66N/T262R/V115G/W38E/Y61H); conditions: DRBI *1302
HLA-DR DRB1*1501 (DR15) = HLA-DR DRB1*1501 (DR15) (Homo sapiens, UniProt P01903+P01911); conditions: DRBI *1501
HLA-DR DRB3*0101 (DR52) = HLA-DR DRB3*0101 (DR52) (Homo sapiens, UniProt P01903+P79483)
HLA-DR DRB4*0101 (DR53) = HLA-DR DRB4*0101 (DR53) (Homo sapiens, UniProt P01903+P13762, G164S); conditions: DRB4 *0101
HLA-DR DRB5*0101 (DR51) = HLA-DR DRB5*0101 (DR51) (Homo sapiens, UniProt P01903+Q30154); conditions: DRB5 *0101

Sequence of HLA-DR DRB1*1101 (DR11) (P01903 26-254 limits assumed, other chains not shown): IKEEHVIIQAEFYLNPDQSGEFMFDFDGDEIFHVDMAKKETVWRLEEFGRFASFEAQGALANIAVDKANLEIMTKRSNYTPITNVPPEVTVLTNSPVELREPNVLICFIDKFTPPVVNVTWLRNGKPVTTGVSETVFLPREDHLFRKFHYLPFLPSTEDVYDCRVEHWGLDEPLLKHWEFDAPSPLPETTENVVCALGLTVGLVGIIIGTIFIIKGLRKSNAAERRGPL
Sequence of HLA-DR DRB1*1302 (DR13) (P01903 26-254 limits assumed, other chains not shown): as above

| Molecule | IC50 (HLA-DR DRB1*0101 (DR1)) | IC50 (HLA-DR DRB1*0401 (DR4)) | IC50 (HLA-DR DRB1*0701 (DR7)) | IC50 (HLA-DR DRB1*0802 (DR8)) | IC50 (HLA-DR DRB1*0901 (DR9)) | IC50 (HLA-DR DRB1*1101 (DR11)) | IC50 (HLA-DR DRB1*1302 (DR13)) | IC50 (HLA-DR DRB1*1501 (DR15)) | IC50 (HLA-DR DRB3*0101 (DR52)) | IC50 (HLA-DR DRB4*0101 (DR53)) | IC50 (HLA-DR DRB5*0101 (DR51)) |
| --- | --- | --- | --- | --- | --- | --- | --- | --- | --- | --- | --- |
| GRAVCGGVLVHPQWV | 0.386 µM | > 26.7 µM | 3.58 µM | > 245 µM | 8.07 µM | > 50 µM | 5.46 µM | 12.9 µM | > 12.1 µM | 0.062 µM | ≥ 100 µM |
| CSCC[C@H](NC(=O)[C@H](CC(=O)O)NC(=O)[C@H](Cc1ccc(O)cc1)NC(=O)[C@H](CC(C)C)NC(=O)[C@@H]1CCCN1C(=O)[C@H](Cc1c[nH]cn1)NC(=O)[C@@H]1CCCN1)C(=O)N[C@@H](CO)C(=O)N[C@@H](CC(C)C)C(=O)N[C@@H](CC(C)C)C(=O)N[C@@H](CCCCN)C(=O)N[C@@H](CC(N)=O)C(=O)N[C@@H](CCCNC(=N)N)C(=O)N[C@@H](Cc1ccccc1)C(=O)N[C@@H](CC(C)C)C(=O)O | – | 20.8 µM | 10.7 µM | 29.8 µM | 12.8 µM | > 50 µM | 11.7 µM | 0.712 µM | > 13.5 µM | 7.49 µM | 3.1 µM |
| CC[C@H](C)[C@H](NC(=O)CNC(=O)[C@H](CCC(N)=O)NC(=O)[C@H](CC(C)C)NC(=O)[C@@H](NC(=O)CNC(=O)[C@H](CC(N)=O)NC(=O)[C@H](CS)NC(=O)[C@@H](NC(=O)[C@H](CC(C)C)NC(=O)[C@@H]1CCCN1C(=O)CNC(=O)CN)C(C)C)C(C)C)C(=O)N[C@H](C(=O)N[C@@H](CO)C(=O)O)[C@@H](C)O | 3.35 µM | 0.068 µM | > 35.7 µM | 9.33 µM | 16.3 µM | 1.83 µM | 0.036 µM | 30.3 µM | > 6.57 µM | 0.815 µM | 13.4 µM |
| CSCC[C@H](NC(=O)[C@@H](NC(=O)[C@H](CCCCN)NC(=O)[C@@H](NC(=O)[C@H](C)NC(=O)[C@H](CC(=O)O)NC(=O)[C@@H](N)[C@@H](C)O)C(C)C)C(C)C)C(=O)N[C@@H](CC(=O)O)C(=O)N[C@@H](CC(C)C)C(=O)N1CCC[C@H]1C(=O)N[C@H](C(=O)N[C@@H](CCC(N)=O)C(=O)N[C@@H](CCC(=O)O)C(=O)N1CCC[C@H]1C(=O)N[C@@H](C)C(=O)O)[C@@H](C)O | > 50 µM | > 80 µM | > 41.7 µM | 20.9 µM | > 107 µM | > 50 µM | > 35 µM | > 45.5 µM | > 13.5 µM | 0.747 µM | > 200 µM |
| CC[C@H](C)[C@H](NC(=O)[C@H](CS)NC(=O)[C@H](Cc1c[nH]cn1)NC(=O)[C@H](C)NC(=O)[C@H](C)NC(=O)[C@@H](NC(=O)[C@H](CC(C)C)NC(=O)[C@@H](NC(=O)[C@H](Cc1c[nH]c2ccccc12)NC(=O)[C@@H](N)CCC(N)=O)C(C)C)[C@@H](C)O)C(=O)N[C@@H](CCCNC(=N)N)C(=O)N[C@@H](CC(N)=O)C(=O)N[C@@H](CCCCN)C(=O)N[C@@H](CO)C(=O)N[C@H](C(=O)O)C(C)C | 0.05 µM | 19.4 µM | 0.214 µM | 2.6 µM | 0.967 µM | 2.17 µM | 2.06 µM | 13.6 µM | 7.34 µM | 3.8 µM | 0.035 µM |
| DFEVFFQRLGIASGR | – | 0.221 µM | 21.9 µM | 0.122 µM | 2 µM | 0.128 µM | 10.1 µM | 10.2 µM | 30.7 µM | 0.0042 µM | 3.56 µM |
| PHPLYNMSLLKHQSL | 19.1 µM | 0.819 µM | 20.7 µM | 3.31 µM | 1.59 µM | 6.46 µM | 3.31 µM | 3.87 µM | > 14.9 µM | 0.049 µM | 1.9 µM |
| NGVLQGITSWGPEPC | 1.09 µM | 8.43 µM | 2.29 µM | 52.2 µM | 50.1 µM | 32.4 µM | > 17.5 µM | 0.835 µM | > 14.4 µM | 5.76 µM | > 100 µM |
| CC[C@H](C)[C@H](NC(=O)[C@@H](NC(=O)[C@@H]1CCCN1C(=O)CNC(=O)[C@@H](NC(=O)[C@H](CC(C)C)NC(=O)[C@H](CCC(=O)O)NC(=O)[C@H](C)NC(=O)[C@@H](N)Cc1ccccc1)C(C)C)C(C)C)C(=O)N1CCC[C@H]1C(=O)N[C@@H](CCC(N)=O)C(=O)N[C@@H](CC(=O)O)C(=O)N[C@@H](Cc1c[nH]c2ccccc12)C(=O)N[C@@H](CO)C(=O)N[C@H](C(=O)O)[C@@H](C)O | 0.012 µM | – | 24.1 µM | > 245 µM | 39.5 µM | > 50 µM | > 35 µM | > 45.5 µM | > 15 µM | 0.983 µM | > 200 µM |
| CC[C@H](C)[C@H](NC(=O)[C@@H]1CCCN1C(=O)[C@H](CC(=O)O)NC(=O)[C@@H](NC(=O)[C@@H]1CCCN1C(=O)[C@H](Cc1ccccc1)NC(=O)[C@@H](NC(=O)[C@H](CC(=O)O)NC(=O)[C@@H](NC(=O)[C@@H]1CCCN1C(=O)[C@H](CO)NC(=O)[C@@H](N)CCCNC(=N)N)[C@@H](C)CC)[C@@H](C)O)[C@@H](C)O)C(=O)N[C@@H](CCCCN)C(=O)N[C@@H](CCC(=O)O)C(=O)N[C@@H](CO)C(=O)O | > 50 µM | – | > 62.5 µM | > 245 µM | 6.12 µM | > 200 µM | > 35 µM | 2.37 µM | > 14.4 µM | 0.469 µM | 28.6 µM |
| GKVFRGNKVKNAQLA | 0.612 µM | 1.09 µM | 2.35 µM | 4.12 µM | 31.3 µM | 0.894 µM | 0.046 µM | 3.37 µM | 7.59 µM | 7.88 µM | – |
